Results as given in US9510598B2, “Nitrogen-containing heterocyclic compounds for plant disease control” (BAYER CROPSCIENCE AG, priority 2012, dated 2016).
Read-outs that look alike come from different tables or passages of the source.

Conditions: method [a]: pH 2.7, 0.1% formic acid in water / acetonitrile gradient
Description: Measurement of log P values was performed according EEC directive 79/831 Annex V.A8 by HPLC (High Performance Liquid Chromatography) on reversed phase columns with the following methods: ^[a]

SMILES	Log P (Table 2, formula (II))	Log P (Table 3, formula (V))
C#Cc1cc2cc(C3=NOC(C)(C(=O)O)C3)ccc2nc1Cl (stereo not shown) [II-55]	2.24[a]	–
O=C(O)C1(CBr)CC(c2ccc3ncc(Br)cc3c2)=NO1 (racemic) [II-11]	2.19[a]	–
COC1(C(=O)O)CC(c2ccc3ncc(Br)cc3c2)=NO1 (racemic) [II-04]	1.73[a]	–
CCOC(=O)C1(C)ON=C(c2ccc3ncc(Br)cc3c2)C1CC (stereo not shown) [II-42]	3.74[a]	–
COC(=O)C12CCCC1C(c1ccc3ncc(Br)cc3c1)=NO2 (stereo not shown) [II-31]	3.23[a]	–
CC1(C(=O)O)CC(c2ccc3ncc(Br)c(Cl)c3c2)=NO1 (stereo not shown) [II-96]	2.34[a]	–
Cc1cc(C2=NOC(C)(C(=O)O)C2)cc2cc(Br)cnc12 (stereo not shown) [II-85]	2.64[a]	–
C#Cc1cnc2c(Cl)cc(C3=NOC(OC)(C(=O)O)C3)cc2c1 (stereo not shown) [II-90]	1.95[a]	–
COC(=O)C1(C(C)=O)CC(c2ccc3ncc(Br)cc3c2)=NO1 (stereo not shown) [II-40]	2.94[a]	–
O=C(O)C1(CCl)CC(c2ccc3ncc(Br)cc3c2)=NO1 (racemic) [II-06]	2.11[a]	–
C#Cc1cnc2ccc(C3=NOC(C)(C(=O)O)C3)cc2c1 (racemic) [II-10]	1.71[a]	–
COC(=O)C1(C)CC(c2ccc3nc(Cl)c(Br)cc3c2)=NO1 (stereo not shown) [II-44]	3.74[a]	–
CC1(C(=O)O)CC(c2cc3cc(Br)cnc3cc2F)=NO1 (racemic) [II-07]	2.14[a]	–
O=C(O)C1(C2CC2)CC(c2ccc3ncc(Br)cc3c2)=NO1 (stereo not shown) [II-37]	2.43[a]	–
ON=Cc1cc(Cl)c2ncc(Br)cc2c1 [V-17]	–	2.40[a]
ON=C(Cl)c1ccc2ncc(I)cc2c1 [V-08]	–	2.63[a]
C#Cc1cnc2c(C)cc(C3=NOC(C)(C(=O)O)C3)cc2c1 (stereo not shown) [II-81]	2.30[a]	–

SMILES	Log P (Table 2, formula (II))	Log P (Table 3, formula (V))
COC(=O)C1(C)CC(c2cc(Cl)c3ncc(Br)cc3c2)=NO1 (stereo not shown) [II-76]	3.29[a]	–
C#Cc1cnc2c(C)cc(C3=NOC(OC)(C(=O)OCC)C3)cc2c1 (stereo not shown) [II-86]	3.46[a]	–
O=C(O)C1(c2ccccc2)CC(c2ccc3ncc(Br)cc3c2)=NO1 (racemic) [II-12]	2.76[a]	–
COC(=O)C1(OC)CC(c2cc3cc(Br)cnc3c(F)c2F)=NO1 (racemic) [II-24]	3.04[a]	–
COC(=O)C1(C)CC(c2cc3cc(Br)cnc3c(F)c2F)=NO1 (stereo not shown) [II-27]	3.06[a]	–
COC(=O)C1(CCl)CC(c2ccc3ncc(Br)cc3c2)=NO1 (racemic) [II-16]	3.03[a]	–
COC(=O)C1(C)CC(c2cc3cccnc3c(F)c2F)=NO1 (stereo not shown) [II-29]	2.11[a]	–
COC(=O)C1(C2CC2)CC(c2ccc3ncc(Br)cc3c2)=NO1 (racemic) [II-18]	3.27[a]	–
COC1(C(=O)O)CC(c2cc(C)c3ncc(Br)cc3c2)=NO1 (stereo not shown) [II-92]	2.42[a]	–
COC(=O)C1ON=C(c2ccc3ncc(Br)cc3c2)C12CC2 (stereo not shown) [II-41]	2.71[a]	–
Cc1cc(C=NO)cc2cc(Br)cnc12 [V-16]	–	2.61[a]
ON=C(Cl)c1cc2cc(Br)cnc2cc1F [V-06]	–	2.63[a]
COC(=O)C1(C(F)(F)F)CC(c2ccc3ncc(Br)cc3c2)=NO1 (racemic) [II-14]	3.4[a]	–
C#Cc1cnc2c(C)cc(C3=NOC(OC)(C(=O)O)C3)cc2c1 (stereo not shown) [II-93]	2.07[a]	–
ON=C(Cl)c1ccc2ncc(Br)cc2c1 [V-10]	–	2.52[a]
CC1(C(=O)O)CC(c2cc3cc(Br)cnc3c(F)c2F)=NO1 (racemic) [II-02]	2.25[a]	–
CCOC(=O)C1(OC)CC(c2cc(Cl)c3ncc(Br)cc3c2)=NO1 (stereo not shown) [II-87]	3.69[a]	–
